# Values of other authors as cited in article PMC9311539, “Antibacterial Activity against Clinical Isolates and In Vivo Efficacy of Coralmycins” (Antibiotics, 2022).
# Like-named read-outs stand apart in the source and are kept apart here.
# Key:
# [1] = system: E. coli ATCC 25922; design: method as in PMID 34123255; conditions: 37.5 mg/kg/day; cited from earlier work
# [2] = system: E. coli ATCC 25922; design: method as in PMID 34123255; conditions: cited from earlier work
# [3] = design: method as in PMID 34123255; conditions: cited from earlier work
structure (smiles),measurement,setting,value
CC(C)Oc1c(NC(=O)c2ccc(NC(=O)C(CC(N)=O)NC(=O)c3ccc(NC(=O)c4ccc(C#N)cc4)cc3)cc2)ccc(C(=O)Nc2ccc(C(=O)O)cc2)c1O (centres unmarked) [CN-DM-861],in vivo effect in three mouse models,[1],potent bactericidal effects
same,MIC,[2],0.02 µg/mL
same,"detection in tissues (thigh, kidney, lung)",[3]; after s.c. administration,well detected
same,AUC,[3]; i.v. 5 mg/kg,approximately 2 μg·h/mL
same,T1/2,[3]; i.v. 5 mg/kg,approximately 1 h
same,Vdss,[3]; i.v. 5 mg/kg,3.5 L/kg
same,bioavailability,[3]; reported,25%
same,AUC/MIC ratio,"[3]; s.c. 5 mg/kg, MIC against E. coli ATCC 25922",159.5
same,AUC,[3]; s.c. 5 mg/kg,517 ng·h/mL
same,Cmax,[3]; s.c. 5 mg/kg,128 ng/mL
same,Tmax,[3]; s.c. 5 mg/kg,1.7 h
